Experimental data as given in paper PMC5392334, “Discovery and characterization of a novel irreversible EGFR mutants selective and potent kinase inhibitor CHMFL-EGFR-26 with a distinct binding mode” (Oncotarget, 2017).
Read-outs that look alike come from different tables or passages of the source.

Columns and labels:
ALK = molecular target: T1, ALK (Homo sapiens, UniProt Q9UM73); experiment: KinomeScan; format: binding; conditions: read-out: % control
T1 construct: purchased DiscoveRx KINOMEscan

ALK(C1156Y) = molecular target: T2, ALK(C1156Y) (Homo sapiens, UniProt Q9UM73, C1156Y); experiment: KinomeScan; format: binding; conditions: read-out: % control
T2 construct: purchased DiscoveRx KINOMEscan

BRAF(V600E) = molecular target: T3, BRAF(V600E) (Homo sapiens, UniProt P15056, V600E); experiment: KinomeScan; format: binding; conditions: read-out: % control
T3 construct: purchased DiscoveRx KINOMEscan

CASK = molecular target: T4, CASK (Homo sapiens, UniProt O14936); experiment: KinomeScan; format: binding; conditions: read-out: % control
T4 construct: purchased DiscoveRx KINOMEscan

CDC2L1 = molecular target: T5, CDC2L1 (Homo sapiens, UniProt P21127); experiment: KinomeScan; format: binding; conditions: read-out: % control
T5 construct: purchased DiscoveRx KINOMEscan

CDK7 = molecular target: T6, CDK7 (Homo sapiens, UniProt P50613); experiment: KinomeScan; format: binding; conditions: read-out: % control
T6 construct: purchased DiscoveRx KINOMEscan

CSNK2A2 = molecular target: T7, CSNK2A2 (Homo sapiens, UniProt P19784); experiment: KinomeScan; format: binding; conditions: read-out: % control
T7 construct: purchased DiscoveRx KINOMEscan

EGFR(E746-A750del) = molecular target: T8, EGFR(E746-A750del) (Homo sapiens, UniProt P00533, DEL746-750); experiment: KinomeScan; format: binding; conditions: read-out: % control
T8 construct: purchased DiscoveRx KINOMEscan

EPHA4 = molecular target: T9, EPHA4 (Homo sapiens, UniProt P54764); experiment: KinomeScan; format: binding; conditions: read-out: % control
T9 construct: purchased DiscoveRx KINOMEscan
T9 sequence (P54764 20-986): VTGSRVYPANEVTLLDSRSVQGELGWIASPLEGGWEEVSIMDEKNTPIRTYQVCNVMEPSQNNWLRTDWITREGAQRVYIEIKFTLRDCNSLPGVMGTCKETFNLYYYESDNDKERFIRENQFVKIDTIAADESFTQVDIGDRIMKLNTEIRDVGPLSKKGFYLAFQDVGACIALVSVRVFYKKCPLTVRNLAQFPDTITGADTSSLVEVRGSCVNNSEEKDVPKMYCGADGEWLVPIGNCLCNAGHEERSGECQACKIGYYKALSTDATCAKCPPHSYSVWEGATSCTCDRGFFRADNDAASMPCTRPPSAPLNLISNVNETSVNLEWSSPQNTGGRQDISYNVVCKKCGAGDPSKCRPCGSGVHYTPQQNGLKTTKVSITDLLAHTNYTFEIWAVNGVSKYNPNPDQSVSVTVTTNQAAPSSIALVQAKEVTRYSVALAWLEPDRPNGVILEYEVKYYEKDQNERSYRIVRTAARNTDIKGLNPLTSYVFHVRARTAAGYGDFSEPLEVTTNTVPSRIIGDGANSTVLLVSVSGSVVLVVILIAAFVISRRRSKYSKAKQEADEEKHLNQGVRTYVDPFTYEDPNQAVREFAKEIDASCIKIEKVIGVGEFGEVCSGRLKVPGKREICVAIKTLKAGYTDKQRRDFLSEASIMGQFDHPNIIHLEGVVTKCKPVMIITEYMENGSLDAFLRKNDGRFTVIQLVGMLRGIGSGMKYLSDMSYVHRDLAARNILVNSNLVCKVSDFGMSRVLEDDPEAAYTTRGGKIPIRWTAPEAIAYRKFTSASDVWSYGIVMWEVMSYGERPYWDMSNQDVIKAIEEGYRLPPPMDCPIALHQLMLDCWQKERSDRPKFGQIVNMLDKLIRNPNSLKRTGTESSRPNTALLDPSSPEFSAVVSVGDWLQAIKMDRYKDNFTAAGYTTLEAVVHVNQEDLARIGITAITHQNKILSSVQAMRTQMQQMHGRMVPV

FGR = molecular target: T10, FGR (Homo sapiens, UniProt P09769); experiment: KinomeScan; format: binding; conditions: read-out: % control
T10 construct: purchased DiscoveRx KINOMEscan
T10 sequence (P09769 whole entry): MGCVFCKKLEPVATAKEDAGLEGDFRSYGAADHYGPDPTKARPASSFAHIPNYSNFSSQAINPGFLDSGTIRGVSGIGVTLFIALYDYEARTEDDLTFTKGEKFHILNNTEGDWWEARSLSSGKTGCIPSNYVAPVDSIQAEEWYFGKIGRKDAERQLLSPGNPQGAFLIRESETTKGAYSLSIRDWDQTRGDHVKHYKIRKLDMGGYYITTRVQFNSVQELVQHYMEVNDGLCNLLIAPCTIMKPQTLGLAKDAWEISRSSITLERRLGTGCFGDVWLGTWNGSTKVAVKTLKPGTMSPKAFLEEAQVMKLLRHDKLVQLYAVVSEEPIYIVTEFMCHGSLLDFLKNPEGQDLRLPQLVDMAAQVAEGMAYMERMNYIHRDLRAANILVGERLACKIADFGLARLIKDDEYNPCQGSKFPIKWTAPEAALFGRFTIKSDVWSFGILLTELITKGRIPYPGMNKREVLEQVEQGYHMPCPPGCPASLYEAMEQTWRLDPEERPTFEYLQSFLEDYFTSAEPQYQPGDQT

INSRR = molecular target: T11, INSRR (Homo sapiens, UniProt P14616); experiment: KinomeScan; format: binding; conditions: read-out: % control
T11 construct: purchased DiscoveRx KINOMEscan

LCK = molecular target: T12, LCK (Homo sapiens, UniProt P06239); experiment: KinomeScan; format: binding; conditions: read-out: % control
T12 construct: purchased DiscoveRx KINOMEscan

MAP3K4 = molecular target: T13, MAP3K4 (Homo sapiens, UniProt Q9Y6R4); experiment: KinomeScan; format: binding; conditions: read-out: % control
T13 construct: purchased DiscoveRx KINOMEscan
T13 sequence (Q9Y6R4 whole entry): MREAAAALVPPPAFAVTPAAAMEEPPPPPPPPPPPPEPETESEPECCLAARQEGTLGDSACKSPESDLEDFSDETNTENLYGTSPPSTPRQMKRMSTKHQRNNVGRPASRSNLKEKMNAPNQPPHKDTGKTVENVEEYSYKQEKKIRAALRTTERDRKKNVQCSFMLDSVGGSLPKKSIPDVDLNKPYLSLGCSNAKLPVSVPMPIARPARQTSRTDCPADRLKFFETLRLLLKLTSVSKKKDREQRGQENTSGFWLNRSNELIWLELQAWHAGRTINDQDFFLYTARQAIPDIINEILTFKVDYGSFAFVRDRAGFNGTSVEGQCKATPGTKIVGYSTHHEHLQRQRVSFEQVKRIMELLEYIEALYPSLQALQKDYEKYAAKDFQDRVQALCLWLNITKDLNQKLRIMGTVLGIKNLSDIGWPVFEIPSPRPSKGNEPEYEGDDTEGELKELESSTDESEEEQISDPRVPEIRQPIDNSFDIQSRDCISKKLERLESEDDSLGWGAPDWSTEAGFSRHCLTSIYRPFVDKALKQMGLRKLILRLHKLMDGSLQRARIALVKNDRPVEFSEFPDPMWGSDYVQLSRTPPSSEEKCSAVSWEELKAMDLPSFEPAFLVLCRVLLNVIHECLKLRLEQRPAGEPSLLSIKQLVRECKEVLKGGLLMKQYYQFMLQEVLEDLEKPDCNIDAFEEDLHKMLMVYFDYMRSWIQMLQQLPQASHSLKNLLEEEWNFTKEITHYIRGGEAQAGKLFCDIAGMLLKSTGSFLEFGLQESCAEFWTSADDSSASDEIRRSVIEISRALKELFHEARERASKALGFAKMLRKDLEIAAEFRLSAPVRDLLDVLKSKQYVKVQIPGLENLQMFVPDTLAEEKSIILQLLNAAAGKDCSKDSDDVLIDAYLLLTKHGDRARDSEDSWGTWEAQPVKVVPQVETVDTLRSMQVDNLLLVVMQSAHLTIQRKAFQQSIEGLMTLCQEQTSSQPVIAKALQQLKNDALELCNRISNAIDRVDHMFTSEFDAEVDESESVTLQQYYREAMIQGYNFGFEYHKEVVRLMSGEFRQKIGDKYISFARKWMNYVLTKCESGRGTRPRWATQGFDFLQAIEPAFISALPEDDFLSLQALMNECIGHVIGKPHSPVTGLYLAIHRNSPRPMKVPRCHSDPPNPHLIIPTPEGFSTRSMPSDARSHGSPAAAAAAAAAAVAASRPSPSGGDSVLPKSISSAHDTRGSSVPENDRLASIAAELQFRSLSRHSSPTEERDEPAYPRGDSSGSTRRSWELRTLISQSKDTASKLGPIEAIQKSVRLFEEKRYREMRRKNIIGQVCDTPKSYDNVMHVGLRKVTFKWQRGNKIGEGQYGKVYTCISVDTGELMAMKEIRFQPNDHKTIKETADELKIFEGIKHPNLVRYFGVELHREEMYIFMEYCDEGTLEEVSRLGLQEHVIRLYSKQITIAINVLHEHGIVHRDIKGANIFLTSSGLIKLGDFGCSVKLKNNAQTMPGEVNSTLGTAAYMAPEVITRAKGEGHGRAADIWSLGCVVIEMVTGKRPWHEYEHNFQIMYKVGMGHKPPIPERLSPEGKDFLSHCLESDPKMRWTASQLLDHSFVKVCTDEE

MELK = molecular target: T14, MELK (Homo sapiens, UniProt Q14680); experiment: KinomeScan; format: binding; conditions: read-out: % control
T14 construct: purchased DiscoveRx KINOMEscan

MKNK1 = molecular target: T15, MKNK1 (Homo sapiens, UniProt Q9BUB5); experiment: KinomeScan; format: binding; conditions: read-out: % control
T15 construct: purchased DiscoveRx KINOMEscan
T15 sequence (Q9BUB5 whole entry): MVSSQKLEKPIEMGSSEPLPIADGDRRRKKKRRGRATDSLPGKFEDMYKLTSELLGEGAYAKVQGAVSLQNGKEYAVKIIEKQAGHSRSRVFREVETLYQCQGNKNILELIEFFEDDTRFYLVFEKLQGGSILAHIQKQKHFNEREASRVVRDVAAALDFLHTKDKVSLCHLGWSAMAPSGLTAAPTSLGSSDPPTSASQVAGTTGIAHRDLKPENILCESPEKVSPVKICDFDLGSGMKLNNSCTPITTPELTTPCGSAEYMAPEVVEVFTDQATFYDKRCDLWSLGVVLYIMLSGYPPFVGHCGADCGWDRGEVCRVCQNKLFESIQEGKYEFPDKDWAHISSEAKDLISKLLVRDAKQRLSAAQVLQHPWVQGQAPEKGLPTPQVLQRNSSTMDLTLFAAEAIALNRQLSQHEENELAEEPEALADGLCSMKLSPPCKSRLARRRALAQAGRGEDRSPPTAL

NEK10 = molecular target: T16, NEK10 (Homo sapiens, UniProt Q6ZWH5); experiment: KinomeScan; format: binding; conditions: read-out: % control
T16 construct: purchased DiscoveRx KINOMEscan

PCTK1 = molecular target: T17, PCTK1 (Homo sapiens, UniProt Q00536); experiment: KinomeScan; format: binding; conditions: read-out: % control
T17 construct: purchased DiscoveRx KINOMEscan

PCTK2 = molecular target: T18, PCTK2 (Homo sapiens, UniProt Q00537); experiment: KinomeScan; format: binding; conditions: read-out: % control
T18 construct: purchased DiscoveRx KINOMEscan

PDGFRA = molecular target: T19, PDGFRA (Homo sapiens, UniProt P16234); experiment: KinomeScan; format: binding; conditions: read-out: % control
T19 construct: purchased DiscoveRx KINOMEscan

PDPK1 = molecular target: T20, PDPK1 (Homo sapiens, UniProt O15530); experiment: KinomeScan; format: binding; conditions: read-out: % control
T20 construct: purchased DiscoveRx KINOMEscan

PFTK1 = molecular target: T21, PFTK1 (Homo sapiens, UniProt O94921); experiment: KinomeScan; format: binding; conditions: read-out: % control
T21 construct: purchased DiscoveRx KINOMEscan

PIP5K1A = molecular target: T22, PIP5K1A (Homo sapiens, UniProt Q99755); experiment: KinomeScan; format: binding; conditions: read-out: % control
T22 construct: purchased DiscoveRx KINOMEscan

PIP5K2C = molecular target: T23, PIP5K2C (Homo sapiens, UniProt Q8TBX8); experiment: KinomeScan; format: binding; conditions: read-out: % control
T23 construct: purchased DiscoveRx KINOMEscan

PKMYT1 = molecular target: T24, PKMYT1 (Homo sapiens, UniProt Q99640); experiment: KinomeScan; format: binding; conditions: read-out: % control
T24 construct: purchased DiscoveRx KINOMEscan

PLK1 = molecular target: T25, PLK1 (Homo sapiens, UniProt P53350); experiment: KinomeScan; format: binding; conditions: read-out: % control
T25 construct: purchased DiscoveRx KINOMEscan

PYK2 = molecular target: T26, PYK2 (Homo sapiens, UniProt Q14289); experiment: KinomeScan; format: binding; conditions: read-out: % control
T26 construct: purchased DiscoveRx KINOMEscan
T26 sequence (Q14289 whole entry): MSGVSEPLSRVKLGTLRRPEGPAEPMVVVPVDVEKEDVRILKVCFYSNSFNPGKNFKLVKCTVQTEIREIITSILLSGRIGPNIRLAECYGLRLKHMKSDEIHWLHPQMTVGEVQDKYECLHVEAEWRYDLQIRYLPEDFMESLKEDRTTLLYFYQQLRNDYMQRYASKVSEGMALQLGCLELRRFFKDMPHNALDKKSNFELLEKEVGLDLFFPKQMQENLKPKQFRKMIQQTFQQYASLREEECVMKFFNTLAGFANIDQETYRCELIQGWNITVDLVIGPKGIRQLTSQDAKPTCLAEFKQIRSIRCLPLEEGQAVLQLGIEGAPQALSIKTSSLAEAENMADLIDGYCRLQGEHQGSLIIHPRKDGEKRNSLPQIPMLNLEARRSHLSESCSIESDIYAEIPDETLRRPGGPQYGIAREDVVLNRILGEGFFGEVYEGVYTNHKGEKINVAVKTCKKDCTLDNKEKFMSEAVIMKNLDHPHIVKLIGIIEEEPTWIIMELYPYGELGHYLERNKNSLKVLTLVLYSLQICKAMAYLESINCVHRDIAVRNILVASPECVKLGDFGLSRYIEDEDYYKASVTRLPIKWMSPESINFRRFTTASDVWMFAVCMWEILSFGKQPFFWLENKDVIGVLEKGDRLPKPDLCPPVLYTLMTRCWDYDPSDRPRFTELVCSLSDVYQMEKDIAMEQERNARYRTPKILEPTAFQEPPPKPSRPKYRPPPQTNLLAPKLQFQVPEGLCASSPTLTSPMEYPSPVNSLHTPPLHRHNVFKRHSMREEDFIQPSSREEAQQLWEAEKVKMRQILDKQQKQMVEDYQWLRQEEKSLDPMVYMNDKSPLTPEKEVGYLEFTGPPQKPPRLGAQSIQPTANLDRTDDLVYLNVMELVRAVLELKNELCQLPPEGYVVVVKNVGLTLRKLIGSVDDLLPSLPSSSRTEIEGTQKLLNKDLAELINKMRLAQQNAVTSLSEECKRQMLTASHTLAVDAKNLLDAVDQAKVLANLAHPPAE

[1] = molecular target: T27, RSK4(Kin.Dom.1-N-terminal) (Homo sapiens, UniProt Q9UK32); experiment: KinomeScan; format: binding; conditions: read-out: % control
T27 construct: RSK4(Kin.Dom.1-N-terminal); purchased DiscoveRx KINOMEscan
T27 sequence (Q9UK32 1-400 limits assumed): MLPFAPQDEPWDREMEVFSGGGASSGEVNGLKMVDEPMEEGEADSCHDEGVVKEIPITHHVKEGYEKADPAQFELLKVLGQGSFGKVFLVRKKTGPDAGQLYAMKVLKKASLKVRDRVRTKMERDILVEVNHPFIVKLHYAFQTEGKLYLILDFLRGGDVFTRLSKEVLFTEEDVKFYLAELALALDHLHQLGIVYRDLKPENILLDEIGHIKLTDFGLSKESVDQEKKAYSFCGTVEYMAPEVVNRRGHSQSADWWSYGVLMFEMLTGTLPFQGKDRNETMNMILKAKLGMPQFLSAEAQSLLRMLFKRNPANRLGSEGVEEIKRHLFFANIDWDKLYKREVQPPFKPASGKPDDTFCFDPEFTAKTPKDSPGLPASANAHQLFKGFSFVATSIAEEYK

SgK110 = molecular target: T28, SgK110 (Homo sapiens, UniProt P0C264); experiment: KinomeScan; format: binding; conditions: read-out: % control
T28 construct: purchased DiscoveRx KINOMEscan

SGK3 = molecular target: T29, SGK3 (Homo sapiens, UniProt Q96BR1); experiment: KinomeScan; format: binding; conditions: read-out: % control
T29 construct: purchased DiscoveRx KINOMEscan

TLK2 = molecular target: T30, TLK2 (Homo sapiens, UniProt Q86UE8); experiment: KinomeScan; format: binding; conditions: read-out: % control
T30 construct: purchased DiscoveRx KINOMEscan

ULK3 = molecular target: T31, ULK3 (Homo sapiens, UniProt Q6PHR2); experiment: KinomeScan; format: binding; conditions: read-out: % control
T31 construct: purchased DiscoveRx KINOMEscan

VPS34 = molecular target: T32, VPS34 (Homo sapiens, UniProt Q8NEB9); experiment: KinomeScan; format: binding; conditions: read-out: % control
T32 construct: purchased DiscoveRx KINOMEscan

YSK1 = molecular target: T33, YSK1 (Homo sapiens, UniProt O00506); experiment: KinomeScan; format: binding; conditions: read-out: % control
T33 construct: purchased DiscoveRx KINOMEscan

[2] = tested on: BaF3-TEL-EGFR-T790M-C797S; experiment: Anti-proliferation, BaF3 isogenic cell lines (CellTiter-Glo); format: cell-based; conditions: Mus musculus, 72 hours, triplet testing
[3] = Pharmacokinetic properties in rats; format: in vivo; conditions: for MRT last: read-out: MRT(0-t)
Description: To further investigate the effect of CHMFL-EGFR-26 in vivo, we first examined its pharmacokinetic properties in rats (Supplementary Table 5). The half-life is 0.8 hour by oral dosing which is short but considering the irreversible binding mode, this short half-life was preferred. […]

H1975 tumor xenografts = experiment: H1975 cells inoculated xenograft mouse model; conditions: for Tumor weight (final, mean): 21-day treatment
[4] = rat, in vivo, po, P.O. (10mg/kg)
[5] = H1975 xenograft, 25.0 mg/kg/d oral
[6] = H1975 xenograft, 50.0 mg/kg/d oral
[7] = H1975 xenograft, 100 mg/kg/d oral

Q: Which remaining binding at 1 µM (ALK) does the source give for `C=CC(=O)N1CCC[C@@H](n2nc(-c3ccc(OCc4cccc(C)n4)c(Cl)c3)c3c(N)ncnc32)C1` [CHMFL-EGFR-26] here?
A: 100%

Q: And the remaining binding at 1 µM (ALK(C1156Y))?
A: 100%

Q: And the remaining binding at 1 µM (BRAF(V600E))?
A: 62%

Q: And the remaining binding at 1 µM (CASK)?
A: 95%

Q: What about the remaining binding at 1 µM (CDC2L1) of the same compound?
A: 86%

Q: And the remaining binding at 1 µM (CDK7)?
A: 100%

Q: And the remaining binding at 1 µM (CSNK2A2)?
A: 91%

Q: What about the remaining binding at 1 µM (EGFR(E746-A750del)) of the same compound?
A: 34%

Q: And the remaining binding at 1 µM (EPHA4)?
A: 100%

Q: What about the remaining binding at 1 µM (FGR) of the same compound?
A: 86%

Q: And the remaining binding at 1 µM (INSRR)?
A: 100%

Q: And the remaining binding at 1 µM (LCK)?
A: 33%

Q: And the remaining binding at 1 µM (MAP3K4)?
A: 86%

Q: And the remaining binding at 1 µM (MELK)?
A: 41%

Q: What about the remaining binding at 1 µM (MKNK1) of the same compound?
A: 100%

Q: And the remaining binding at 1 µM (NEK10)?
A: 99%

Q: What about the remaining binding at 1 µM (PCTK1) of the same compound?
A: 100%

Q: What about the remaining binding at 1 µM (PCTK2) of the same compound?
A: 89%

Q: What about the remaining binding at 1 µM (PDGFRA) of the same compound?
A: 100%

Q: And the remaining binding at 1 µM (PDPK1)?
A: 97%

Q: What about the remaining binding at 1 µM (PFTK1) of the same compound?
A: 100%

Q: And the remaining binding at 1 µM (PIP5K1A)?
A: 100%

Q: What about the remaining binding at 1 µM (PIP5K2C) of the same compound?
A: 85%

Q: What about the remaining binding at 1 µM (PKMYT1) of the same compound?
A: 92%

Q: And the remaining binding at 1 µM (PLK1)?
A: 100%

Q: What about the remaining binding at 1 µM (PYK2) of the same compound?
A: 55%

Q: And the remaining binding at 1 µM [1]?
A: 100%

Q: And the remaining binding at 1 µM (SgK110)?
A: 100%

Q: What about the remaining binding at 1 µM (SGK3) of the same compound?
A: 83%

Q: And the remaining binding at 1 µM (TLK2)?
A: 80%

Q: What about the remaining binding at 1 µM (ULK3) of the same compound?
A: 92%

Q: And the remaining binding at 1 µM (VPS34)?
A: 89%

Q: And the remaining binding at 1 µM (YSK1)?
A: 20%

Q: And the GI50 [2]?
A: 3.7 µM

Q: What about the CLz ([3]; P.O. (10mg/kg)) of the same compound?
A: 2.53 ± 0.45 L/h/kg

Q: What about the Vz ([3]; P.O. (10mg/kg)) of the same compound?
A: 2.62 ± 0.14 L/kg

Q: What about the T1/2 ([3]; P.O. (10mg/kg), 10 mg/kg) of the same compound?
A: 48 min

Q: And the half-life ([3]; rat, in vivo, iv, 1 mg/kg, I.V (1mg/kg))?
A: 18.6 ± 4.92 min

Q: And the AUC(0-inf) ([3]; rat, in vivo, iv, I.V (1mg/kg))?
A: 1190 ± 143 ng·h/mL

Q: What about the AUC(0-t) ([3]; rat, in vivo, iv, I.V (1mg/kg)) of the same compound?
A: 1190 ± 142 ng·h/mL

Q: What about the Cmax ([3]; rat, in vivo, iv, I.V (1mg/kg)) of the same compound?
A: 10600 ± 1650 ng/mL

Q: What about the Tmax ([3]; rat, in vivo, iv, I.V (1mg/kg)) of the same compound?
A: 1.02 min

Q: And the clearance ([3]; rat, in vivo, iv, I.V (1mg/kg), read-out: CLz (converted))?
A: 14.2 mL/min/kg

Q: What about the MRT last ([3]; rat, in vivo, iv, I.V (1mg/kg)) of the same compound?
A: 10.8 ± 2.1 min

Q: And the Vd ([3]; rat, in vivo, iv, I.V (1mg/kg), read-out: Vz)?
A: 0.38 ± 0.13 L/kg

Q: And the half-life ([3]; rat, in vivo, po, 10 mg/kg, P.O. (10mg/kg))?
A: 44.4 ± 9 min

Q: And the AUC(0-inf) [3, 4]?
A: 4040 ± 717 ng·h/mL

Q: And the AUC(0-t) [3, 4]?
A: 4040 ± 716 ng·h/mL

Q: And the Cmax [3, 4]?
A: 5210 ± 859 ng/mL

Q: What about the Tmax [3, 4] of the same compound?
A: 19.8 ± 8.4 min

Q: What about the bioavailability ([3]; rat, in vivo, po, P.O. (10mg/kg), read-out: F% (bioavailability)) of the same compound?
A: 33.8%

Q: And the MRT last [3, 4]?
A: 43.2 ± 4.14 min

Q: What about the “TGI (tumor growth inhibition rate)” value (H1975 tumor xenografts; [5]) of the same compound?
A: 23.0%

Q: What about the “Tumor weight (final, mean)” value (H1975 tumor xenografts; [5]) of the same compound?
A: 1.37 g

Q: What about the “TGI (tumor growth inhibition rate)” value (H1975 tumor xenografts; [6]) of the same compound?
A: 48.9%

Q: And the “Tumor weight (final, mean)” value (H1975 tumor xenografts; [6])?
A: 0.91 g

Q: What about the “TGI (tumor growth inhibition rate)” value (H1975 tumor xenografts; [7]) of the same compound?
A: 60.1%

Q: And the “Tumor weight (final, mean)” value (H1975 tumor xenografts; [7])?
A: 0.71 g

Q: What about the “toxicity (body weight)” value (H1975 tumor xenografts; H1975 xenograft, oral 25, 50 and 100mg/kg/day) of the same compound?
A: did not show any apparent toxicity

Q: And the hyperglycemia (H1975 tumor xenografts; preclinical mouse model study)?
A: no hyperglycemia phenomenon was observed
